# The supplement of paper PMC10307832
# What was measured:
# Test in all cases: relative viability (nuclei count vs DMSO), 5 days (fraction); higher = more cells survive
# [1] = compound: O=C(C[C@H]1NCCC[C@@H]1O)Cn1cnc2cc(Br)c(Cl)cc2c1=O (racemic) [Halofuginone] + CCNC(=O)c1noc(-c2cc(C(C)C)c(O)cc2O)c1-c1ccc(CN2CCOCC2)cc1 [Luminespib] (partner 0.01 µM)
# How it was run: (§1)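 Values are medians from duplicate plates. Each reflects relative viability, defined as the nuclei count of treated wells over that of vehicle wells. Lung cancer cell lines in 1536-well plates were pin-tool dosed one day after seeding with one drug alone or with a fixed anchor-drug dose plus five library-drug doses (not always all listed) in √10 steps, then fixed, stained and imaged at 4× after 5 days.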
# [2] = compound: O=C(C[C@H]1NCCC[C@@H]1O)Cn1cnc2cc(Br)c(Cl)cc2c1=O (racemic) [Halofuginone] + CC(C)C[C@H](NC(=O)[C@H](Cc1ccccc1)NC(=O)c1cnccn1)B(O)O [Bortezomib] (partner 0.002 µM)
# How it was run: as §1
# Cediranib + Vorinostat = compound: COc1cc2c(Oc3ccc4[nH]c(C)cc4c3F)ncnc2cc1OCCCN1CCCC1 [Cediranib] + O=C(CCCCCCC(=O)Nc1ccccc1)NO [Vorinostat] (partner 1 µM)
# How it was run: as §1
# Cediranib + Foretinib = compound: COc1cc2c(Oc3ccc4[nH]c(C)cc4c3F)ncnc2cc1OCCCN1CCCC1 [Cediranib] + COc1cc2c(Oc3ccc(NC(=O)C4(C(=O)Nc5ccc(F)cc5)CC4)cc3F)ccnc2cc1OCCCN1CCOCC1 [Foretinib] (partner 0.25 µM)
# How it was run: as §1
cell line,measurement,setting,value
NCI-H2405,relative viability,[1]; first compound 0.001 µM,0.797
same,relative viability,[1]; first compound 0.003162 µM,0.691
same,relative viability,[1]; first compound 0.01 µM,0.72
same,relative viability,[1]; first compound 0.03162 µM,0.688
same,relative viability,[1]; first compound 0.1 µM,0.663
same,relative viability,[2]; first compound 0.001 µM,1.07
same,relative viability,[2]; first compound 0.003162 µM,0.948
same,relative viability,[2]; first compound 0.01 µM,0.968
same,relative viability,[2]; first compound 0.03162 µM,0.943
same,relative viability,[2]; first compound 0.1 µM,0.904
same,relative viability,Cediranib + Vorinostat; first compound 0.04 µM,0.995
same,relative viability,Cediranib + Vorinostat; first compound 0.1265 µM,0.928
same,relative viability,Cediranib + Vorinostat; first compound 0.4 µM,0.983
same,relative viability,Cediranib + Vorinostat; first compound 1.265 µM,1.03
same,relative viability,Cediranib + Vorinostat; first compound 4 µM,1.21
same,relative viability,Cediranib + Foretinib; first compound 0.04 µM,1.1
same,relative viability,Cediranib + Foretinib; first compound 0.1265 µM,1.13
same,relative viability,Cediranib + Foretinib; first compound 0.4 µM,1.03
same,relative viability,Cediranib + Foretinib; first compound 1.265 µM,1.1
same,relative viability,Cediranib + Foretinib; first compound 4 µM,1.02
NCI-H3122,relative viability,[1]; first compound 0.001 µM,0.0978
same,relative viability,[1]; first compound 0.003162 µM,0.0825
same,relative viability,[1]; first compound 0.01 µM,0.0899
same,relative viability,[1]; first compound 0.03162 µM,0.0925
same,relative viability,[1]; first compound 0.1 µM,0.148
same,relative viability,[2]; first compound 0.001 µM,1.05
same,relative viability,[2]; first compound 0.003162 µM,1.06
same,relative viability,[2]; first compound 0.01 µM,1
same,relative viability,[2]; first compound 0.03162 µM,0.954
same,relative viability,[2]; first compound 0.1 µM,1.04
same,relative viability,Cediranib + Vorinostat; first compound 0.04 µM,1.02
same,relative viability,Cediranib + Vorinostat; first compound 0.4 µM,0.985
same,relative viability,Cediranib + Vorinostat; first compound 1.265 µM,1.13
same,relative viability,Cediranib + Vorinostat; first compound 4 µM,1.07
same,relative viability,Cediranib + Foretinib; first compound 0.04 µM,0.938
same,relative viability,Cediranib + Foretinib; first compound 0.1265 µM,1.03
same,relative viability,Cediranib + Foretinib; first compound 0.4 µM,0.991
same,relative viability,Cediranib + Foretinib; first compound 1.265 µM,0.844
same,relative viability,Cediranib + Foretinib; first compound 4 µM,1.02
PC-3 [JPC-3],relative viability,[1]; first compound 0.001 µM,0.705
same,relative viability,[1]; first compound 0.003162 µM,0.714
same,relative viability,[1]; first compound 0.01 µM,0.626
same,relative viability,[1]; first compound 0.03162 µM,0.823
same,relative viability,[1]; first compound 0.1 µM,0.661
same,relative viability,[2]; first compound 0.001 µM,0.852
same,relative viability,[2]; first compound 0.003162 µM,0.875
same,relative viability,[2]; first compound 0.01 µM,0.736
same,relative viability,[2]; first compound 0.03162 µM,0.799
same,relative viability,[2]; first compound 0.1 µM,0.873
same,relative viability,Cediranib + Vorinostat; first compound 0.04 µM,0.771
same,relative viability,Cediranib + Vorinostat; first compound 0.4 µM,0.765
same,relative viability,Cediranib + Vorinostat; first compound 1.265 µM,0.855
same,relative viability,Cediranib + Vorinostat; first compound 4 µM,0.797
same,relative viability,Cediranib + Foretinib; first compound 0.04 µM,1.1
same,relative viability,Cediranib + Foretinib; first compound 0.1265 µM,1.1
same,relative viability,Cediranib + Foretinib; first compound 0.4 µM,0.98
same,relative viability,Cediranib + Foretinib; first compound 1.265 µM,1.05
same,relative viability,Cediranib + Foretinib; first compound 4 µM,1.08
PC-14,relative viability,[1]; first compound 0.001 µM,0.152
same,relative viability,[1]; first compound 0.003162 µM,0.161
same,relative viability,[1]; first compound 0.01 µM,0.183
same,relative viability,[1]; first compound 0.03162 µM,0.184
same,relative viability,[1]; first compound 0.1 µM,0.104
same,relative viability,[2]; first compound 0.001 µM,0.865
same,relative viability,[2]; first compound 0.003162 µM,0.819
same,relative viability,[2]; first compound 0.01 µM,0.697
same,relative viability,[2]; first compound 0.03162 µM,0.13
same,relative viability,[2]; first compound 0.1 µM,0.0654
same,relative viability,Cediranib + Vorinostat; first compound 0.04 µM,0.831
same,relative viability,Cediranib + Vorinostat; first compound 0.1265 µM,0.755
same,relative viability,Cediranib + Vorinostat; first compound 0.4 µM,0.744
same,relative viability,Cediranib + Vorinostat; first compound 1.265 µM,0.801
same,relative viability,Cediranib + Vorinostat; first compound 4 µM,0.451
same,relative viability,Cediranib + Foretinib; first compound 0.04 µM,1.04
same,relative viability,Cediranib + Foretinib; first compound 0.1265 µM,1.08
same,relative viability,Cediranib + Foretinib; first compound 0.4 µM,0.861
same,relative viability,Cediranib + Foretinib; first compound 1.265 µM,0.997
same,relative viability,Cediranib + Foretinib; first compound 4 µM,0.928
RERF-LC-KJ,relative viability,[1]; first compound 0.001 µM,1.47
same,relative viability,[1]; first compound 0.003162 µM,1.27
same,relative viability,[1]; first compound 0.01 µM,1.22
same,relative viability,[1]; first compound 0.03162 µM,1.25
same,relative viability,[1]; first compound 0.1 µM,0.887
same,relative viability,[2]; first compound 0.001 µM,1.23
same,relative viability,[2]; first compound 0.003162 µM,1.12
same,relative viability,[2]; first compound 0.01 µM,1.15
same,relative viability,[2]; first compound 0.03162 µM,1.17
same,relative viability,[2]; first compound 0.1 µM,1.04
same,relative viability,Cediranib + Vorinostat; first compound 0.04 µM,0.805
same,relative viability,Cediranib + Vorinostat; first compound 0.1265 µM,0.226
same,relative viability,Cediranib + Vorinostat; first compound 0.4 µM,0.62
same,relative viability,Cediranib + Vorinostat; first compound 1.265 µM,0.674
same,relative viability,Cediranib + Vorinostat; first compound 4 µM,0.761
same,relative viability,Cediranib + Foretinib; first compound 0.04 µM,0.917
same,relative viability,Cediranib + Foretinib; first compound 0.1265 µM,0.889
same,relative viability,Cediranib + Foretinib; first compound 0.4 µM,0.873
same,relative viability,Cediranib + Foretinib; first compound 1.265 µM,0.862
same,relative viability,Cediranib + Foretinib; first compound 4 µM,0.953
SK-LU-1,relative viability,[1]; first compound 0.001 µM,0.202
same,relative viability,[1]; first compound 0.003162 µM,0.196
same,relative viability,[1]; first compound 0.01 µM,0.23
same,relative viability,[1]; first compound 0.03162 µM,0.219
same,relative viability,[1]; first compound 0.1 µM,0.174
same,relative viability,[2]; first compound 0.001 µM,1.28
same,relative viability,[2]; first compound 0.003162 µM,0.931
same,relative viability,[2]; first compound 0.01 µM,0.955
same,relative viability,[2]; first compound 0.03162 µM,1.31
same,relative viability,[2]; first compound 0.1 µM,0.821
same,relative viability,Cediranib + Vorinostat; first compound 0.04 µM,0.881
same,relative viability,Cediranib + Vorinostat; first compound 0.1265 µM,0.777
same,relative viability,Cediranib + Vorinostat; first compound 0.4 µM,0.685
same,relative viability,Cediranib + Vorinostat; first compound 1.265 µM,0.775
same,relative viability,Cediranib + Vorinostat; first compound 4 µM,0.773
same,relative viability,Cediranib + Foretinib; first compound 0.04 µM,0.945
same,relative viability,Cediranib + Foretinib; first compound 0.1265 µM,0.825
same,relative viability,Cediranib + Foretinib; first compound 0.4 µM,0.725
same,relative viability,Cediranib + Foretinib; first compound 1.265 µM,0.876
same,relative viability,Cediranib + Foretinib; first compound 4 µM,0.972
SW 1573,relative viability,[1]; first compound 0.001 µM,0.507
same,relative viability,[1]; first compound 0.003162 µM,0.152
same,relative viability,[1]; first compound 0.01 µM,0.265
same,relative viability,[1]; first compound 0.03162 µM,0.113
same,relative viability,[1]; first compound 0.1 µM,0.0969
same,relative viability,[2]; first compound 0.001 µM,1.03
same,relative viability,[2]; first compound 0.003162 µM,1.02
same,relative viability,[2]; first compound 0.01 µM,1.15
same,relative viability,[2]; first compound 0.03162 µM,0.653
same,relative viability,[2]; first compound 0.1 µM,0.227
same,relative viability,Cediranib + Vorinostat; first compound 0.04 µM,1.03
same,relative viability,Cediranib + Vorinostat; first compound 0.1265 µM,0.532
same,relative viability,Cediranib + Vorinostat; first compound 0.4 µM,0.991
same,relative viability,Cediranib + Vorinostat; first compound 1.265 µM,0.582
same,relative viability,Cediranib + Vorinostat; first compound 4 µM,0.806
same,relative viability,Cediranib + Foretinib; first compound 0.04 µM,0.937
same,relative viability,Cediranib + Foretinib; first compound 0.1265 µM,1.01
same,relative viability,Cediranib + Foretinib; first compound 0.4 µM,0.912
same,relative viability,Cediranib + Foretinib; first compound 1.265 µM,0.996
same,relative viability,Cediranib + Foretinib; first compound 4 µM,1.09
